The record followed here is patent US20250215030A1, “STAT MODULATORS AND USES THEREOF” (Recludix Pharma, Inc., priority 2022, published 2025).

Each structure is given as a SMILES string.

One assay concerns the target T1, pSTAT3 (pY705-STAT3) (Homo sapiens, UniProt P40763).
T1 construct: host or cells: cryopreserved PBMC
Description: MSD-pSTAT-PBMC Assay (pSTAT3, IL-6 stimulated). The settings on record: PBMC, compound 3 hrs, then 10 ng/mL IL-6 for 10 min; MSD pY705-STAT3; read-out: pSTAT3. Format: cell-based. Summed up: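 Human PBMCs (50,000 cells/well for STAT3, 25,000 for STAT6) treated with compound 3 h, then stimulated 10 min with 10 ng/mL IL-6 or 1 ng/mL IL-4. Lysate pSTAT3 (pY705) or pSTAT6 (pY641) measured by MSD sandwich electrochemiluminescence. Signal minus unstimulated, normalized to DMSO; IC50 by variable-slope nonlinear regression.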

The next assay concerns the target T2, pSTAT6 (pY641-STAT6) (Homo sapiens, UniProt P42226).
T2 construct: host or cells: cryopreserved PBMC
T2 sequence (P42226 1-847): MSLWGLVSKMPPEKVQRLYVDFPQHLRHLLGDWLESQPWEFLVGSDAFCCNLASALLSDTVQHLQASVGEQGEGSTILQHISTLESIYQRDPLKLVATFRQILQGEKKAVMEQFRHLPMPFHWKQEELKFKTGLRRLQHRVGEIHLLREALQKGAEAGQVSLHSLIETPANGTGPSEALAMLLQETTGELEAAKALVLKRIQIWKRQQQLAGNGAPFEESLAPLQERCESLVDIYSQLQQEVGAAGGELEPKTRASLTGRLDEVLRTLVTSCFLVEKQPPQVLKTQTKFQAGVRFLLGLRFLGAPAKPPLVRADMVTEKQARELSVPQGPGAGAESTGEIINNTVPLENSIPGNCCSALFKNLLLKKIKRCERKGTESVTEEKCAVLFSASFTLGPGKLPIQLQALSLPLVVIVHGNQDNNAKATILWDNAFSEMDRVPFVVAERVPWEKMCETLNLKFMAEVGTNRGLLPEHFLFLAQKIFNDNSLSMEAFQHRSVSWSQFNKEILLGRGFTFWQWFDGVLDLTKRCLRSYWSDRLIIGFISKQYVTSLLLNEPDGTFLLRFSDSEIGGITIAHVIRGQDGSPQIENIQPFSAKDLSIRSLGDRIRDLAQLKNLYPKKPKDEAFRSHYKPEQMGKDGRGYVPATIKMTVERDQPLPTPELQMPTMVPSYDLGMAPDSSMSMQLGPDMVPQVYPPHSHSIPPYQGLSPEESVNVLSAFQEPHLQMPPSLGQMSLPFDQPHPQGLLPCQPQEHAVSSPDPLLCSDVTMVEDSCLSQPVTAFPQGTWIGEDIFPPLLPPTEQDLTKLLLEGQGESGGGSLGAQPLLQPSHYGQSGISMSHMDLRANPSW
The assay can be described thus: MSD-pSTAT-PBMC Assay (pSTAT6, IL-4 stimulated). The settings on record: compound 3 hrs, then 1 ng/mL IL-4 for 10 min. Format: cell-based. From the text:
Cryopreserved Peripheral Blood Mononuclear Cells (PBMC) are from AllCells. Recombinant Human IL-4 and IL-6 are from Peprotech. Mouse monoclonal anti-STAT3 antibody, rabbit monoclonal anti-pY705-STAT3 antibody, rabbit monoclonal Anti-pY641-STAT6 antibody, and lysis buffer are from Cell Signaling Technology (CST). Mouse monoclonal anti-STAT6 antibody is from BioLegend. Assay plates, blocker, and anti-rabbit secondary antibody are from Meso Scale Discovery (MSD).
Cryopreserved PBMCs were thawed out and allowed to recover overnight in IMDM+10% heat-inactivated FBS prior to plating 50,000 (STAT3) or 25,000 (STAT6) cells per well in 96-well U-bottom tissue culture plates. Cells were treated with compound for 3 hrs, then stimulated with 10 ng/mL IL-6 (STAT3) or 1 ng/mL IL-4 (STAT6) for 10 min. Cells were then spun down and washed with ice-cold PBS prior to lysing the cell pellet with 1× lysis buffer (CST) with 1× HALT protease and phosphatase inhibitor cocktail (Thermo). Lysates were transferred to and incubated overnight at 4° C. with shaking in QuickPlex 96-well high bind assay plates (MSD) pre-coated overnight with 30 μL per well of 0.6 μg/mL mouse monoclonal anti-STAT3 antibody (STAT3) or 2 μg/mL mouse monoclonal anti-STAT6 antibody (STAT6) in 1×PBS, and pre-blocked for 1 hour with 3% Blocker-A (MSD). Captured protein in the assay plates were then washed and probed with 25 μL per well of 0.25 μg/ml rabbit monoclonal anti-pY705-STAT3 antibody (STAT3) or 0.18 μg/ml rabbit monoclonal Anti-pY641-STAT6 antibody (STAT6) in 1% Blocker-A for 1 hour at room temperature with shaking, then washed and probed with 25 ul per well of 1 ug/mi Sulfo-TAG Labeled Goat Anti-Rabbit Antibody (MSD) in 1% Blocker-A for 1 hour at room temperature with shaking. Assay plates were then washed and 150 μL of 1× Read Buffer-T (MSD) was added to each well prior to reading on an SQ120 MSD Plate Reader. Assay signal from each sample was subtracted by the signal from unstimulated control wells and normalized to DMSO control wells. IC50 values were calculated using Graph Pad Prism Dose-Response Nonlinear Regression with variable slope. For both pSTAT3 and pSTAT6 A=≤100 nM; B=>100-1000 nM; C=>1000-3000 nM; and D=>3 μM.

T1 sequence (P40763 whole entry): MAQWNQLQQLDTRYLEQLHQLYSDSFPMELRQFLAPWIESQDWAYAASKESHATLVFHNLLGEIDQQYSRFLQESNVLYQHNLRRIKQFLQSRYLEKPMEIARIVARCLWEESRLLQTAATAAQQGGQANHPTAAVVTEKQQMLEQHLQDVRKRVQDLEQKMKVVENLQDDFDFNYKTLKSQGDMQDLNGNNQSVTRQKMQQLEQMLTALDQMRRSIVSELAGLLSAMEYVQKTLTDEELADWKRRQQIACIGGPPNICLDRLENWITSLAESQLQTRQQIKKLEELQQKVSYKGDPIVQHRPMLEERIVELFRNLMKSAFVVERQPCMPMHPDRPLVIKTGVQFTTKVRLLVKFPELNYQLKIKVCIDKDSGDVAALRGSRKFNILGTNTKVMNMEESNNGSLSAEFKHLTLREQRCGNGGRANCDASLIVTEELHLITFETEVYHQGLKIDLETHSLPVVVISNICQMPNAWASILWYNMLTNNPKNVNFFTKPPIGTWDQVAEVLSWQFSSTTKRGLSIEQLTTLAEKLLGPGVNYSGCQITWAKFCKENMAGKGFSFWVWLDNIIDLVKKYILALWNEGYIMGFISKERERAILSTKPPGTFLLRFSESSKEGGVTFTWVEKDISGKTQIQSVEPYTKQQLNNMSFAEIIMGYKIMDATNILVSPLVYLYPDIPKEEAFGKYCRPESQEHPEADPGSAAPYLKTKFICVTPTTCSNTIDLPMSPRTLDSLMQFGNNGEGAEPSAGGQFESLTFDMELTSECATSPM

Consider `CC(C)(C)C(=O)SCCOP(=O)(OCCSC(=O)C(C)(C)C)C(F)(F)c1ccc2sc(C(=O)N[C@H]3C[C@@H]4C[C@@H]4C[C@H]4CC[C@@H](C(=O)N5CC(C(=O)N6CCOCC6)C5)N4C3=O)cc2c1` [Compound 171, S,S′-((((difluoro(2-(((3S,6S,7aS, 8aR,9aR)-3-(3-(morpholine-4-carbonyl)azetidine-1-carbonyl)-5-oxodecahydro-1H-cyclopropa[d]pyrrolo[1,2-a]azocin-6-yl)carbamoyl)benzo[b]thiophen-5-yl)methyl)phosphoryl)bis(oxy))bis(ethane-2,1-diyl)) bis(2,2-dimethyl-propanethioate)], for which the IC50 at pSTAT3 (pY705-STAT3) was less than 100 nM; on pSTAT6 (pY641-STAT6) it was more than 3000 nM.

Regarding `O=C(OCOP(=O)(OCOC(=O)OC1CCOCC1)C(F)(F)c1ccc2sc(C(=O)N[C@H]3C[C@@H]4C[C@@H]4C[C@H]4CC[C@@H](C(=O)N5CC(C(=O)N6CCOCC6)C5)N4C3=O)cc2c1)OC1CCOCC1` [Compound 162, (((difluoro(2-(((3S,6S,7aS, 8aR,9aR)-3-(3-(morpholine-4-carbonyl)azetidine-1-carbonyl)-5-oxodecahydro-1H-cyclopropa [d]pyrrolo[1,2-a]azocin-6-yl)carbamoyl)benzo[b]thiophen-5-yl)methyl)phosphoryl)bis(oxy)) bis(methylene) bis(tetrahydro-2H-pyran-4-yl) bis(carbonate)], the IC50 is 100 to 1000 nM on pSTAT3 (pY705-STAT3) and more than 3000 nM on pSTAT6 (pY641-STAT6).

On to `CC(C)OC(=O)OCOP(=O)(OCOC(=O)OC(C)C)[C@@H](F)c1ccc2sc(C(=O)N[C@H]3C[C@H]4C[C@H]4C[C@H]4CC[C@@H](C(=O)N5CC(c6cccnc6)C5)N4C3=O)cc2c1` [Compound 152, ((((R)-fluoro(2-(((3S,6S,7aR, 8aS,9aR)-5-oxo-3-(3-(pyridin-3-yl)azetidine-1-carbonyl)decahydro-1H-cyclopropa[d]pyrrolo[1,2-a]azocin-6-yl)carbamoyl)benzo[b]thiophen-5-yl)methyl)phosphoryl)bis(oxy)) bis(methylene) diisopropyl bis(carbonate)], for which the IC50 at pSTAT3 (pY705-STAT3) is less than 100 nM; on pSTAT6 (pY641-STAT6), 100 to 1000 nM.

For `CC(C)CC(=O)SCCOP(=O)(OCCSC(=O)CC(C)C)C(F)(F)c1ccc2sc(C(=O)N[C@H]3C[C@H]4C[C@H]4C[C@H]4CC[C@@H](C(=O)N5CC(c6cncnc6)C5)N4C3=O)cc2c1` [Compound 222, S,S′-((((difluoro(2-(((3S,6S,7aR, 8aS,9aR)-5-oxo-3-(3-(pyrimidin-5-yl)azetidine-1-carbonyl)decahydro-1H-cyclopropa[d]pyrrolo[1,2-a]azocin-6-yl)carbamoyl)benzo[b]thiophen-5-yl)methyl)phosphoryl)bis(oxy))bis(ethane-2,1-diyl)) bis(3-methylbutane thioate)], the IC50 on pSTAT3 (pY705-STAT3) is less than 100 nM; at pSTAT6 (pY641-STAT6) it was more than 3000 nM.

As to `CC(C)CC(=O)SCCOP(=O)(OCCSC(=O)CC(C)C)C(F)(F)c1ccc2sc(C(=O)N[C@H]3C[C@H]4C[C@H]4C[C@H]4CC[C@@H](C(=O)N5CC(n6ccnc6)C5)N4C3=O)cc2c1` [Compound 179, S,S′-(((((2-(((3S,6S,7aR, 8aS,9aR)-3-(3-(1H-imidazol-1-yl)azetidine-1-carbonyl)-5-oxodecahydro-1H-cyclopropa[d]pyrrolo[1,2-a]azocin-6-yl)carbamoyl)benzo[b]thiophen-5-yl)difluoromethyl)phosphoryl)bis(oxy))bis(ethane-2,1-diyl)) bis(3-methylbutane thioate)], the IC50 at pSTAT3 (pY705-STAT3) was less than 100 nM; on pSTAT6 (pY641-STAT6), more than 3000 nM.

Regarding `CC(=O)N1C[C@@H](F)[C@@H](NC(=O)[C@@H]2CC[C@@H]3C[C@@H]4C[C@@H]4C[C@H](NC(=O)c4cc5cc(C(F)(F)P(=O)(OCCSC(=O)CC(C)C)OCCSC(=O)CC(C)C)ccc5s4)C(=O)N32)C1` [Compound 142, S,S′-(((((2-(((3S,6S,7aR, 8aS,9aR)-3-(((3S,4R)-1-acetyl-4-fluoropyrrolidin-3-yl)carbamoyl)-5-oxodecahydro-1H-cyclopropa [d]pyrrolo[1,2-a]azocin-6-yl)carbamoyl)benzo[b]thiophen-5-yl)difluoromethyl)phosphoryl)bis(oxy))bis(ethane-2,1-diyl)) bis(3-methylbutane thioate)], the IC50 is less than 100 nM on pSTAT3 (pY705-STAT3) and 1000 to 3000 nM at pSTAT6 (pY641-STAT6).

In the case of `CC(C)OC(=O)OCOP(=O)(Cc1ccc2sc(C(=O)N[C@H]3C[C@@H]4C[C@@H]4C[C@H]4CC[C@@H](C(=O)N5CC(n6ccnc6)C5)N4C3=O)cc2c1)OCOC(=O)OC(C)C` [Compound 157, ((((2-(((3S,6S,7aS, 8aR,9aR)-3-(3-(1H-imidazol-1-yl)azetidine-1-carbonyl)-5-oxodecahydro-1H-cyclopropa[d]pyrrolo[1,2-a]azocin-6-yl)carbamoyl)benzo[b]thiophen-5-yl)methyl)phosphoryl)bis(oxy)) bis(methylene) diisopropyl bis(carbonate)], the IC50 is less than 100 nM at pSTAT3 (pY705-STAT3) and more than 3000 nM against pSTAT6 (pY641-STAT6).

Consider `CC(C)(C)C(=O)OCOP(=O)(Cc1ccc2sc(C(=O)N[C@H]3C[C@H]4C[C@H]4C[C@H]4CC[C@@H](C(=O)N5CC(c6ccccn6)C5)N4C3=O)cc2c1)OCOC(=O)C(C)(C)C` [Compound 155, ((((2-(((3S,6S,7aR, 8aS,9aR)-5-oxo-3-(3-(pyridin-2-yl)azetidine-1-carbonyl)decahydro-1H-cyclopropa[d]pyrrolo[1,2-a]azocin-6-yl)carbamoyl)benzo[b]thiophen-5-yl)methyl)phosphoryl)bis(oxy)) bis(methylene) bis(2,2-dimethyl-pronanoate)], for which the results for the IC50 on pSTAT3 (pY705-STAT3) and at pSTAT6 (pY641-STAT6) were less than 100 nM and 1000 to 3000 nM, respectively.

Regarding `CC(C)CC(=O)SCCOP(=O)(Oc1ccccc1)C(F)(F)c1ccc2sc(C(=O)N[C@H]3C[C@@H]4C[C@@H]4C[C@H]4CC[C@@H](C(=O)N5CC(C(=O)N6CCOCC6)C5)N4C3=O)cc2c1` (stereo partly drawn) [Compound 185, S-(2-(((difluoro(2-(((3S,6S,7aS, 8aR,9aR)-3-(3-(morpholine-4-carbonyl)azetidine-1-carbonyl)-5-oxodecahydro-1H-cyclopropa[d]pyrrolo[1,2-a]azocin-6-yl)carbamoyl)benzo[b]thiophen-5-yl)methyl) (phenoxy)phosphoryl)oxy)ethyl) 3-methylbutane thioate], the IC50 on pSTAT3 (pY705-STAT3) was 100 to 1000 nM; at pSTAT6 (pY641-STAT6), more than 3000 nM.

`CC(C)(O)CC(=O)SCCOP(=O)(OCCSC(=O)CC(C)(C)O)C(F)(F)c1ccc2sc(C(=O)NC3CC4CC4CC4CCC(C(=O)N5CC(n6ccnc6)C5)N4C3=O)cc2c1` [Compound 136, S,S′-(((((2-(((3S,6S,7aS, 8aR,9aR)-3-(3-(1H-imidazol-1-yl)azetidine-1-carbonyl)-5-oxodecahydro-1H-cyclopropa[d]pyrrolo[1,2-a]azocin-6-yl)carbamoyl)benzo[b]thiophen-5-yl)difluoro-methyl)phosphoryl)bis(oxy))bis (ethane-2,1-diyl))bis(3-hydroxy-3-methylbutane thioate)]: the IC50 is 1000 to 3000 nM on pSTAT3 (pY705-STAT3) and more than 3000 nM against pSTAT6 (pY641-STAT6).
